Data: patent US7893077B2, “Bisaryl-sulfonamides” (Amgen Inc., priority 2004, dated 2011)

The molecules below were run against T1, PPARγ (Homo sapiens, UniProt P37231) (assay: PPARγ ligand binding assay utilizing [3H]-BRL 49653 as the radioligand (filtration)). Details: concentration required to reduce by 50% the specific binding of [3H]-BRL 49653.
T1 construct: made in house
T1 sequence (P37231 1-505): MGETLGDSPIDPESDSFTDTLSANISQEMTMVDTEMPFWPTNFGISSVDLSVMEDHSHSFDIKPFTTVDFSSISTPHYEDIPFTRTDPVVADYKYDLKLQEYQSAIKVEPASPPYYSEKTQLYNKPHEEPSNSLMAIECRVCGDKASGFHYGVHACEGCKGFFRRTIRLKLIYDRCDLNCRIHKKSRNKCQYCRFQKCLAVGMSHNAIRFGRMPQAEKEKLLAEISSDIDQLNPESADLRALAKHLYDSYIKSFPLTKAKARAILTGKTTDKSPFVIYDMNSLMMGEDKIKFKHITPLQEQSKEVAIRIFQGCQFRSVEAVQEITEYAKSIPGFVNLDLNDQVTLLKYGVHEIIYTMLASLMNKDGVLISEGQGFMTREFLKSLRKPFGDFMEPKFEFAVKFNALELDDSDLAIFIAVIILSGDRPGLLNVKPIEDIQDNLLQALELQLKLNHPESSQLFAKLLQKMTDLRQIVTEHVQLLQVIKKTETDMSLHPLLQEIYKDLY
Description: The compounds of the present invention can be evaluated for modulation of the PPARγ receptor using assays such as those described in Jiang, et al., Nature 391:82-86 (1998), Ricote, et al., Nature 391:79-82 (1998) and Lehmann, et al., J. Biol. Chem. 270(12): 12953-12956 (1995). Alternatively, the compounds can be evaluated for their ability to displace radiolabeled BRL 49653 from a PPARγ-GST fusion protein as follows:
PPARγ-GST fusion protein (prepared according to standard procedures), [^3H]-BRL 49653 having 50 Ci/mmol specific activity, Polyfiltronics Unifilter 350 filtration plate and glutathione-Sepharose® beads (from Pharmacia: washed twice with 10× binding buffer in which BSA and DTI can be left out).
Binding buffer (10 mM Tris-HCl, pH 8.0, 50 mM KCl, 10 mM DTT, 0.02% BSA and 0.0 1% NP-40) is added in 80-μL amounts to the wells of the filtration plate. The test compound is then added in 10 μL of DMSO. The PPARγ-GST fusion protein and radiolabeled BRL compound are premixed in binding buffer containing 10 mM DTT and added in 10-μL amounts to the wells of the plate to provide final concentrations of 1 µg/well of PPARγ-GST fusion protein and 10 nM [^3H]-BRL 49653 compound. The plate is incubated for 15 min. Glutathione-agarose bead is added in 50 μL of binding buffer, and the plate is vigorously shaken for one hour. The plate is washed four times with 200 μL/well of binding buffer (without BSA and DTT). The bottom of the plate is sealed and 200 μL/well of scintillation cocktail is added. The top of the plate is then sealed and the radioactivity is determined.
IC50 values are defined as the concentration of test compounds required to reduce by 50% the specific binding of [^3H]-BRL 49653 and are represented by (+)<30 μM; (++)<10 μM; (+++)<1 μM.

Row | SMILES | IC50 [nM]
1 | Cc1nc(NS(=O)(=O)c2ccc(Cl)cc2Cl)ccc1Sc1ccc(S(=O)(=O)N2CCCCC2)cc1 [Compound 65, 2,4-Dichloro-N-{6-methyl-5-[4-(piperidine-1-sulfonyl) -phenylsulfanyl]-pyridin-2-yl}-benzenesulfonamide] | < 1000
2 | Cc1nc(NS(=O)(=O)c2ccc(Cl)cc2Cl)ncc1Sc1ccc2ccccc2c1 [Compound 57, 2,4-Dichloro-N-[4-methyl-5-(naphthalen-2-ylsulfanyl)-pyrimidin-2-yl]-benzenesulfonamide] | < 10000
3 | CCCCCc1nc(NS(=O)(=O)c2ccc(Cl)cc2)ncc1Sc1ccc(S(=O)(=O)N2CCCCC2)cc1 [Compound 48, 4-Chloro-N-{4-pentyl-5-[4-(piperidine-1-sulfonyl) -phenylsulfanyl]-pyrimidin-2-yl}-benzenesulfonamide] | < 1000
4 | CCCSc1nc(NS(=O)(=O)c2ccc(Cl)cc2Cl)ncc1Sc1ccc(S(=O)(=O)N2CCCCC2)cc1 [Compound 32, 2,4-Dichloro-N-{5-[4-(piperidine-1-sulfonyl)-phenylsulfanyl]-4-propylsulfanyl-pyrimidin-2-yl}-benzenesulfonamide] | < 1000
5 | Cc1nc(NS(=O)(=O)c2ccc(C(F)(F)F)cc2Cl)ncc1Sc1ccc(S(=O)(=O)N2CCCCC2)cc1 [Compound 50, 2-Chloro-N-{4-methyl-5-[4-(piperidine-1-sulfonyl) -phenylsulfanyl]-pyrimidin-2-yl}-4-trifluoromethyl-benzenesulfonamide] | < 10000
6 | Cc1nc(NS(=O)(=O)c2ccc(C(F)(F)F)cc2Cl)ccc1Sc1ccc(S(=O)(=O)N2CCCCC2)cc1 [Compound 66, 2-Chloro-N-{6-methyl-5-[4-(piperidine-1-sulfonyl) -phenylsulfanyl]-pyridin-2-yl}-4-trifluoromethyl-benzenesulfonamide] | < 1000
7 | Cc1nc(NS(=O)(=O)c2ccc(Cl)cc2)ncc1Sc1ccc(S(=O)(=O)N2CCCCC2)cc1 [Compound 51, 4-Chloro-N-{4-methyl-5-[4-(piperidine-1-sulfonyl) -phenylsulfanyl]-pyrimidin-2-yl}-benzenesulfonamide] | < 10000
8 | CCCNc1nc(NS(=O)(=O)c2ccc(Cl)cc2)ncc1Sc1ccc(S(=O)(=O)N2CCCCC2)cc1 [Compound 22, 4-Chloro-N-{5-[4-(piperidine-1-sulfonyl)-phenylsulfanyl]-4-propylamino-pyrimidin-2-yl}-benzenesulfonamide] | < 1000
9 | Cc1nc(NS(=O)(=O)c2ccc(Cl)cc2Cl)ncc1Sc1ccc(S(=O)(=O)N2CCOCC2)cc1 [Compound 52, 2,4-Dichloro-N-{4-methyl-5-[4-(morpholine-4-sulfonyl) -phenylsulfanyl]-pyrimidin-2-yl}-benzenesulfonamide] | < 10000
10 | Cc1cc(NS(=O)(=O)c2ccc(Cl)cc2Cl)ncc1Sc1ccc(S(=O)(=O)N2CCOCC2)cc1 [Compound 75, 2,4-Dichloro-N-{4-methyl-5-[4-(morpholine-4-sulfonyl) -phenylsulfanyl]-pyridin-2-yl}-benzenesulfonamide] | < 1000
11 | Cc1nc(NS(=O)(=O)c2ccc(Cl)cc2Cl)ncc1Oc1ccc(S(=O)(=O)N2CCOCC2)cc1 [Compound 54, 2,4-Dichloro-N-{4-methyl-5-[4-(morpholine-4-sulfonyl) -phenoxy]-pyrimidin-2-yl}-benzenesulfonamide] | < 30000
12 | CCCOc1nc(NS(=O)(=O)c2ccc(Cl)cc2Cl)ncc1Oc1ccc(Cl)c(Cl)c1 [Compound 31, 2,4-Dichloro-N-[5-(3,4-dichloro-phenoxy)-4-propoxy-pyrimidin-2-yl]-benzenesulfonamide] | < 10000
13 | Cc1nc(NS(=O)(=O)c2ccc(Cl)cc2Cl)ncc1Sc1ccc(S(=O)(=O)N2CCCCC2)cc1 [Compound 49, 2,4-Dichloro-N-{4-methyl-5-[4-(piperidine-1-sulfonyl) -phenylsulfanyl]-pyrimidin-2-yl}-benzenesulfonamide] | < 10000

Second part, the molecule after the results:

Row | IC50 [nM] | SMILES
14 | < 1000 | O=C(c1nc(NS(=O)(=O)c2ccc(C(F)(F)F)cc2Cl)ccc1Sc1ccc(S(=O)(=O)N2CCOCC2)cc1)C1CC1 [Compound 88, 2-Chloro-N-{6-cyclopropanecarbonyl-5-[4-(morpholine-4-sulfonyl)-phenylsulfanyl]-pyridin-2-yl}-4-trifluoromethyl-benzenesulfonamide]
15 | < 1000 | O=C(c1nc(NS(=O)(=O)c2ccc(Cl)cc2Cl)ccc1Sc1ccc(S(=O)(=O)N2CCOCC2)cc1)C1CC1 [Compound 79, 2,4-Dichloro-N-{6-cyclopropanecarbonyl-5-[4-(morpholine-4-sulfonyl)-phenylsulfanyl]-pyridin-2-yl}-benzenesulfonamide]
16 | < 1000 | CCC(=O)c1nc(NS(=O)(=O)c2ccc(Cl)cc2Cl)ccc1Sc1ccc(S(=O)(=O)N2CCOCC2)cc1 [Compound 86, 2,4-Dichloro-N-{5-[4-(morpholine-4-sulfonyl)-phenylsulfanyl]-6-propionyl-pyridin-2-yl}-benzenesulfonamide]
17 | < 1000 | COC(=O)c1nc(NS(=O)(=O)c2ccc(Cl)cc2Cl)ccc1Sc1ccc(S(=O)(=O)N2CCOCC2)cc1 [Compound 76, 6-(2,4-Dichloro-benzenesulfonylamino)-3-[4-(morpholine-4-sulfonyl)-phenylsulfanyl]-pyridine-2-carboxylic acid methyl ester]
18 | < 1000 | CCNS(=O)(=O)c1ccc(Sc2ccc(NS(=O)(=O)c3ccc(C(F)(F)F)cc3Cl)nc2C(=O)C2CC2)cc1 [Compound 121, 2-Chloro-N-[6-cyclopropanecarbonyl-5-(4-ethylsulfamoyl-phenylsulfanyl)-pyridin-2-yl]-4-trifluoromethyl-benzenesulfonamide]
19 | < 1000 | O=C(c1nc(NS(=O)(=O)c2ccc(C(F)(F)F)cc2Cl)ccc1Sc1ccc(S(=O)(=O)N2CCCC2)cc1)C1CC1 [Compound 98, 2-Chloro-N-{6-cyclopropanecarbonyl-5-[4-(pyrrolidine-1-sulfonyl)-phenylsulfanyl]-pyridin-2-yl}-4-trifluoromethyl-benzenesulfonamide]
20 | < 10000 | O=S(=O)(Nc1ccc(Sc2ccc(S(=O)(=O)N3CCOCC3)cc2)c(C(F)(F)F)n1)c1ccc(Cl)cc1Cl [Compound 108, 2,4-Dichloro-N-{5-[4-(morpholine-4-sulfonyl)-phenylsulfanyl]-6-trifluoromethyl-pyridin-2-yl}-benzenesulfonamide]
21 | < 1000 | CCCCc1cc(NS(=O)(=O)c2ccc(C(F)(F)F)cc2Cl)nnc1Sc1ccc(S(=O)(=O)C2CCCC2)cc1 [Compound 134, 3-(2′-chloro-4′-trifluoromethyl)phenylsulfonylamino-5-n-butyl-6-(4″-cyclopentanesulfonyl)phenylthiopyridazine]
22 | < 1000 | CCCC(=O)c1nc(NS(=O)(=O)c2ccc(Cl)cc2Cl)ccc1Sc1ccc(S(=O)(=O)N2CCOCC2)cc1 [Compound 78, N-{6-Butyryl-5-[4-(morpholine-4-sulfonyl)-phenylsulfanyl]-pyridin-2-yl}-2,4-dichloro-benzenesulfonamide]
23 | < 1000 | CCCC(=O)c1nc(NS(=O)(=O)c2ccc(C(F)(F)F)cc2Cl)ccc1Sc1ccc(S(=O)(=O)C2CCOCC2)cc1 [Compound 101, N-{6-Butyryl-5-[4-(tetrahydro-pyran-4-sulfonyl)-phenylsulfanyl]-pyridin-2-yl}-2-chloro-4-trifluoromethyl-benzenesulfonamide]
24 | < 1000 | CCCCCOC(=O)c1cc(NS(=O)(=O)c2ccc(Cl)cc2Cl)ncc1Sc1ccc(S(=O)(=O)N2CCCCC2)cc1 [Compound 126, 2-(2,4-Dichloro-benzenesulfonylamino)-5-[4-(piperidine-1-sulfonyl)-phenylsulfanyl]-isonicotinic acid pentyl ester]
25 | < 1000 | O=C(c1nc(NS(=O)(=O)c2ccc(Cl)cc2Cl)ccc1Sc1ccc(S(=O)(=O)N2CCCC2)cc1)C1CC1 [Compound 95, 2,4-Dichloro-N-{6-cyclopropanecarbonyl-5-[4-(pyrrolidine-1-sulfonyl)-phenylsulfanyl]-pyridin-2-yl}-benzenesulfonamide]
